ChEMBL document CHEMBL4742392, “Tetrahydropyridopyrazine modulators of GPR6” (2019)

Key:
[1] = Cardiotoxicity in Beagle dog at 30 to 300 mg/kg, po by telemetry analysis; type: toxicity, organism-based, Canis lupus familiaris; details: in vivo, dose 30-300 mg/kg
Rattus norvegicus = species: Rattus norvegicus; assay: Neuroprotective actvity against 6-OHDA-induced rat Parkinson's disease model assessed as improved locomotory actvity by open-field test; type: functional, organism-based; details: dose 5-10 mg/kg

## CC(=O)N1CCc2nc(N3CCC(Oc4ccc(F)cc4F)CC3)c(N[C@@H]3CCOC3)nc2C1
[1]
  Activity: Non-Toxic
Rattus norvegicus
  Activity: Dose-dependent effect
